Measured values reported in patent US20050171063A1, “Use of phosphono derivatives as anti-malarials” (priority 2003, published 2005).

Tests used:
P. berghei [1] = test: Effect on P. berghei infected mice (in vivo model), parasitemia by Giemsa stained blood smears; parameters: species or system BALB/c mice; conditions: 50 mg/kg of body weight, once a day for four days
Protocol: Effect of Phosphono Acetic Acid on P. berghei Infected Mice (In Vivo Model)
(§1) BALB/c mice (4-6 weeks old) were infected with 10^5 P. berghei parasites/mouse. After four days of infection, when phosphono acetic acid (dissolved in saline and filter sterilized) at a dose of either 25 mg/kg body weight, or 50 mg/kg body weight. The injection of phosphono acetic acid was continued, once a day, for four days. After the fourth day of injection, parasitemea was determined by making Geimsa stained blood smears from the mice.

P. berghei [2] = test: Effect of PAA on survival of infected mice; format: in vivo, BALB/c mice; conditions: dose in the range of about 1 to 50 mg/kg (embodiment)
Protocol: as §1
Effect of PAA on Survival of Infected Mice
The compound of various concentrations was added to the 200 μl of synchronized P. falciparum culture (1% parasitemia). The parasitemia was checked by making Giemsa stained smear after 48 hrs of incubation at 37° C. The compound, PAA was used at the doses of 25 mg/kg and 50 mg/kg body weight. The control group indicates the group of mice infected with the parasite, but with no drug given.

P. falciparum = test: Effect of drug on P. falciparum in vitro: synchronized culture, Giemsa stained smear after 48 hrs; format: cell-based, Plasmodium falciparum
Protocol: Phosphono acetic acid was dissolved in normal saline and filter sterilized. The compound was added to the parasite culture at different concentrations ranging from 1-400 μm. The compound phosphono acetic acid was tested at the indicated doses using the experimental protocol as described below:
Protocol for Testing the Effect of Drug on P. falciparum for In Vitro Studies
The P. falciparum cultures were synchronized at first by sorbitol treatment. The compound of various concentrations was added to the 200 μl of synchronized P. falciparum culture (1% parasitemia). The parasitemia was checked by making Giemsa stained smear after 48 hrs of incubation at 37° C. The growth of P. falciparum was inhibited in dose-dependent manner, where 1 μM concentration yielded >90% inhibition (Plate 1). The bars represent the percent inhibition, whereas, the blue curve indicates the percentage of parasitemia.
Phosphono formic acid was dissolved in normal saline and filter sterilized. The compound was added to the parasite culture at different concentrations ranging from 1-10 μM. The growth of P. falciparum was inhibited in dose-dependent manner, where 10 μM concentration yielded −70% inhibition (FIG. 2).

[3] = test system: 3D7 strain of P. falciparum; test: Microscopy of Giemsa-stained slides, 3D7 strain of P. falciparum; format: cell-based, Plasmodium falciparum; conditions: upon addition of PAA
Text: The effect of Phosphono Acetic Acid on the 3D7 Strain of P. falciparum Giemsa-stained slides prepared for the experiment were examined under a microscope and represented in Plate 4. […] It is clear that PAA actually kills the parasite rather than simply inhibiting their growth (FIG. 4).

SMILES	inhibition of growth of P. berghei (P. berghei [1])	enhances the survival (P. berghei [2])	inhibition of growth of P. falciparum (P. falciparum; 1 μM concentration, 48 hrs, 1% parasitemia)	inhibits growth of P. falciparum (P. falciparum; range of about 1 to 5 μM (embodiment))	effect on parasite seen under microscope [3]	inhibition of growth of P. falciparum (P. falciparum; 10 μM concentration)
O=C(O)CP(=O)(O)O [phosphono acetic acid]	−60%	about 60%	> 90%	about 100%	disintegrated trophozoltes are seen	
O=C(O)P(=O)(O)O [phosphono formic acid]						−70%
